In data set [1] the test system is A-549 (epithelial cancer cell line). As to the kind of experiment: Antiproliferative assay. Type of data set: cell-based, human. To be noted: Homo sapiens, A549; read-out: Antiproliferative Activity IC50 ± SEM, A-549. As for the experimental part:
(§1) 4.2.1.2. Assay for antiproliferative effect
(§2) To explore the antiproliferative potential of compounds MTT assay was performed according to previously reported procedure using different cell lines to explore the antiproliferative potential of compounds propidium iodide fluorescence assay was performed using different cell lines. To calculate the total nuclear DNA, a fluorescent dye (propidium iodide, PI) is used which can attach to the DNA, thus offering a quick and precise technique. PI cannot pass through the cell membrane and its signal intensity can be considered as directly proportional to quantity of cellular DNA. Cells whose cell membranes are damaged or have changed permeability are counted as dead ones. The assay was performed by seeding the cells of different cell lines at a density of 3000-7500 cells/well (in 200µl […]
(§3) atmospheric conditions. The medium was removed; the compounds were added to the plates at 10 µM concentrations (in 0.1% DMSO) in triplicates, followed by incubation for 48 h. DMSO (0.1%) was used as control. After incubation, medium was removed followed by the addition of PI (25 µl, 50µg/mL in water/medium) to each well of the plates. At -80 °C, the plates were allowed to freeze for 24 h, followed by thawing at 25 °C. A fluorometer (Polar-Star BMG Tech) was used to record the readings at excitation and emission wavelengths of 530 and 620 nm for each well. The percentage cytotoxicity of compounds was calculated using the following formula:
(§4) Where ATC= Absorbance of treated cells and AC= Absorbance of control. […]
(§5) positive control in the assay.

The subject of data set [2] is HT-29 (colon cancer cell line). The data set can be described thus: Antiproliferative assay. To be noted: Homo sapiens, read-out: Antiproliferative Activity IC50 ± SEM, HT-29. Type of data set: cell-based, human. The protocol: as §1, §2, §3, §4, §5
For data set [3], the system named is MCF-7 (breast cancer cell line). As to the kind of experiment: Antiproliferative assay. Type of data set: cell-based, human. To be noted: Homo sapiens, MCF7; read-out: Antiproliferative Activity IC50 ± SEM, MCF-7. The protocol: as §1, §2, §3, §4, §5
In the next data set the test system is Bcl-2. The data set can be described thus: Bcl-2 inhibition assay. Type of data set: cell-based, human. To be noted: for Bcl-2 Conc: A-549; for Bcl-2 Fold Reduction: A-549, vs control. As for the experimental part: 4.2.5. Bcl-2inhibition assay
Mix all reagents thoroughly without foaming before use. Wash the microwells twice with approximately 300 μL Wash Buffer per well with thorough aspiration of microwell contents between washes. Take caution not to scratch the surface of the microwells. After the last wash, empty the wells and tap microwell strips on absorbent pad or paper towel to remove excess Wash Buffer. Use the microwell strips immediately after washing or place upside down on a wet absorbent paper for not […]
longer than 15 minutes. […] Add 100 μL of Sample Diluent in duplicate to all standard wells and to the blank wells. Prepare standard (1:2 dilution) in duplicate ranging from 32 ng/mL to 0.5 ng/mL. Add 100 μL of Sample Diluent, in duplicate, to the blank wells. Add 80 μL of Sample Diluent, in duplicate, to the sample wells. Add 20 μL of each Sample, in duplicate, to the designated wells. Add 50 μL of diluted biotin-conjugate to all wells, including the blank wells. Cover […]
Remove plate cover and empty the wells. […]
plate cover and incubate at room temperature, on a microplate shaker at 100 rpm if available, for 1 hour. Remove plate cover and empty the wells. Wash microwell strips 3 times as described in step 2.
Proceed to the next step. Pipette 100 μl of mixed TMB Substrate Solution to all wells, including the […]
available on a rotator set at 100 rpm. Avoid direct exposure to intense light. The point, at which the substrate reaction is stopped, is often determined by the ELISA reader. Many ELISA readers record absorbance only up to 2.0 O.D. Therefore, the color development within individual microwells must be watched by the person running the assay and the substrate reaction stopped before positive wells are no longer properly detectable. Stop the enzyme reaction by quickly pipetting 100 μL of Stop Solution into each well, including the blank wells. It is important that the Stop Solution is spread quickly and uniformly throughout the microwells to completely inactivate the enzyme. Results must be read immediately after the Stop Solution is added or within one hour if the microwell strips are stored at 2 - 8°C in the dark. Read absorbance of each microwell on a spectrophotometer using 450 nm as the primary wave length. […]

Another data set deals with caspase-3. The data set can be described thus: Caspase-3 activation assay. To be noted: for Caspase-3 Conc: A-549; for Caspase-3 Fold Change: A-549, vs control untreated cells.

“And” between values parts separate entries of the source, which are not always exact repeats. Equal values may be shown once.

Method for caspase-3: record autophosphorylation level, EGFR kinase assay was carried out based on DELFIA/Time-
Resolved Fluorometry. The compounds were first dissolved in DMSO absolute, after dilution to
Each compound (10 µL) was incubated
with recombinant enzyme (10 µL, 5 ng for EGFR, 1:80 dilution in 100 mM HEPES) for 10 min at
25 °C, after the addition of 5X buffer (10 µL, containing 2 mM MnCl2, 100 µM Na3VO4, 20 mM HEPES and 1 mM DTT) and ATP-MgCl2 (20 µL, containing 0.1 mM ATP and 50 mM MgCl2) and
incubation for 1h. The negative and positive controls were included in each plate by the incubation
of enzyme either with or without ATP-MgCl2. The liquid was removed after incubation and the plates
were washed thrice using wash buffer. Europium-tagged antiphosphotyrosine antibody (75 µL, 400
ng) was added to each well followed by incubation of 1h and then washing of the plates using buffer.
The enhancement solution was added to each well and the signal was recorded at excitation and
The autophosphorylation percentage inhibition by compounds was calculated using the following equation:

The term IC50 denotes the concentration at which inhibition is half-maximal. A word on the melting point: it is the temperature of the solid-liquid transition. Turning to `O=c1cc(-n2cc(COc3cccc4cccc(OCc5cn(-c6cc(=O)[nH]c7ccccc67)nn5)c34)nn2)c2ccccc2[nH]1` [Compound 4a, 4,4′-(((naphthalene-1,8-diylbis(oxy))bis(methylene))bis(1H-1,2,3-triazole-4,1-diyl))-bis-(quinolin-2(1H)-one)], the melting point is more than 360 °C. Moreover, the IC50 in data set [1] came out at 31 ± 3 nM. Further, the IC50 in data set [2] came out at 36 ± 3 nM. Further, the IC50 in data set [3] is 33 ± 3 nM. Besides, in the data set on Bcl-2, the “Bcl-2 Conc” value is 1.05 ng/mL and the “Bcl-2 Fold Reduction” value worked out at 5. Also, in the data set on caspase-3, the “Caspase-3 Conc” value is 587.50 ± 4.50 pg/mL; the “Caspase-3 Fold Change” value is 9 and 8.95.
For `Cc1ccc2[nH]c(=O)cc(-n3cc(COc4cccc5cccc(OCc6cn(-c7cc(=O)[nH]c8ccc(C)cc78)nn6)c45)nn3)c2c1` [Compound 4b, 4,4′-(((naphthalene-1,8-diylbis(oxy))bis(methylene))bis(1H-1,2,3-triazole-4,1-diyl))-bis(6-methylquinolin-2(1H)-one)], in data set [1], the IC50 turned out to be 41 ± 4 nM. Also, the IC50 in data set [2] turned out to be 48 ± 4 nM. Further, the IC50 in data set [3] amounted to 43 ± 4 nM. In addition, in the data set with Bcl-2, the “Bcl-2 Conc” value was 1.17 ng/mL and the “Bcl-2 Fold Reduction” value was 4. In addition, in the data set with caspase-3, the “Caspase-3 Conc” value was 535.50 ± 4.50 pg/mL; the “Caspase-3 Fold Change” value is 8 and 8.15.

The values are drawn from article PMC9788418, “Design, Synthesis and Biological Evaluation of Syn and Anti-like Double Warhead Quinolinones Bearing Dihydroxy Naphthalene Moiety as Epidermal Growth Factor Receptor Inhibitors with Potential Apoptotic Antiproliferative Action” (Molecules, 2022).
